This is an account of results in US12509431B2, “1,4-dihydroquinazolinone compounds and uses thereof” (Edgewise Therapeutics, Inc., priority 2022, dated 2025).

Common to all, as to format: biochemical
Common to all, as to settings: Table 7

Assay [1] has as its target T1, Porcine Ventricle myofibrils (left ventricle of Yucatan minipigs) (Sus scrofa, UniProt P79293).
T1 construct: Myofibrils from porcine cardiac muscle was isolated from the left ventricle of Yucatan minipigs; tissue Exemplar Genetics; host or cells: left ventricle of Yucatan minipigs
The assay is described as follows: Myofibril ATPase assay (PK/LDH NADH-coupled), ventricle myofibrils. Put shortly:
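NADH depletion (A340) coupled through pyruvate kinase/lactate dehydrogenase reports ATPase rate of porcine left-ventricle myofibrils over 75 min kinetic reads. Regression slopes, vehicle-normalized, fitted by 4-parameter logistic give EC25 and, where available, EC50.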

In assay [2] the test system is Porcine Atria myofibrils. The assay is described as follows: Myofibril ATPase assay (PK/LDH NADH-coupled), atria myofibrils. The gist of the method: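 Values are EC25% (and, for inhibitors, EC50%) from 4-parameter logistic fits of activity normalized to vehicle wells. Rates came from linear regression of 340 nm kinetic reads (every 1.5-2 min, 75 min) of NADH-coupled ATP turnover by porcine atria myofibrils.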

Assay [3] has as its system Rabbit Skeletal myofibrils (rabbit psoas muscle). The assay is described as follows: Myofibril ATPase assay (PK/LDH NADH-coupled), skeletal myofibrils. The gist of the method: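 ATPase rate taken as linear-regression slope of A340 (NADH depletion through PK/LDH coupling) over a 75 min kinetic read, with psoas-derived rabbit skeletal myofibrils at pH 7.0. Four-parameter fits of vehicle-normalized activity give EC25 and, where reached, EC50.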

T1 sequence (P79293 whole entry): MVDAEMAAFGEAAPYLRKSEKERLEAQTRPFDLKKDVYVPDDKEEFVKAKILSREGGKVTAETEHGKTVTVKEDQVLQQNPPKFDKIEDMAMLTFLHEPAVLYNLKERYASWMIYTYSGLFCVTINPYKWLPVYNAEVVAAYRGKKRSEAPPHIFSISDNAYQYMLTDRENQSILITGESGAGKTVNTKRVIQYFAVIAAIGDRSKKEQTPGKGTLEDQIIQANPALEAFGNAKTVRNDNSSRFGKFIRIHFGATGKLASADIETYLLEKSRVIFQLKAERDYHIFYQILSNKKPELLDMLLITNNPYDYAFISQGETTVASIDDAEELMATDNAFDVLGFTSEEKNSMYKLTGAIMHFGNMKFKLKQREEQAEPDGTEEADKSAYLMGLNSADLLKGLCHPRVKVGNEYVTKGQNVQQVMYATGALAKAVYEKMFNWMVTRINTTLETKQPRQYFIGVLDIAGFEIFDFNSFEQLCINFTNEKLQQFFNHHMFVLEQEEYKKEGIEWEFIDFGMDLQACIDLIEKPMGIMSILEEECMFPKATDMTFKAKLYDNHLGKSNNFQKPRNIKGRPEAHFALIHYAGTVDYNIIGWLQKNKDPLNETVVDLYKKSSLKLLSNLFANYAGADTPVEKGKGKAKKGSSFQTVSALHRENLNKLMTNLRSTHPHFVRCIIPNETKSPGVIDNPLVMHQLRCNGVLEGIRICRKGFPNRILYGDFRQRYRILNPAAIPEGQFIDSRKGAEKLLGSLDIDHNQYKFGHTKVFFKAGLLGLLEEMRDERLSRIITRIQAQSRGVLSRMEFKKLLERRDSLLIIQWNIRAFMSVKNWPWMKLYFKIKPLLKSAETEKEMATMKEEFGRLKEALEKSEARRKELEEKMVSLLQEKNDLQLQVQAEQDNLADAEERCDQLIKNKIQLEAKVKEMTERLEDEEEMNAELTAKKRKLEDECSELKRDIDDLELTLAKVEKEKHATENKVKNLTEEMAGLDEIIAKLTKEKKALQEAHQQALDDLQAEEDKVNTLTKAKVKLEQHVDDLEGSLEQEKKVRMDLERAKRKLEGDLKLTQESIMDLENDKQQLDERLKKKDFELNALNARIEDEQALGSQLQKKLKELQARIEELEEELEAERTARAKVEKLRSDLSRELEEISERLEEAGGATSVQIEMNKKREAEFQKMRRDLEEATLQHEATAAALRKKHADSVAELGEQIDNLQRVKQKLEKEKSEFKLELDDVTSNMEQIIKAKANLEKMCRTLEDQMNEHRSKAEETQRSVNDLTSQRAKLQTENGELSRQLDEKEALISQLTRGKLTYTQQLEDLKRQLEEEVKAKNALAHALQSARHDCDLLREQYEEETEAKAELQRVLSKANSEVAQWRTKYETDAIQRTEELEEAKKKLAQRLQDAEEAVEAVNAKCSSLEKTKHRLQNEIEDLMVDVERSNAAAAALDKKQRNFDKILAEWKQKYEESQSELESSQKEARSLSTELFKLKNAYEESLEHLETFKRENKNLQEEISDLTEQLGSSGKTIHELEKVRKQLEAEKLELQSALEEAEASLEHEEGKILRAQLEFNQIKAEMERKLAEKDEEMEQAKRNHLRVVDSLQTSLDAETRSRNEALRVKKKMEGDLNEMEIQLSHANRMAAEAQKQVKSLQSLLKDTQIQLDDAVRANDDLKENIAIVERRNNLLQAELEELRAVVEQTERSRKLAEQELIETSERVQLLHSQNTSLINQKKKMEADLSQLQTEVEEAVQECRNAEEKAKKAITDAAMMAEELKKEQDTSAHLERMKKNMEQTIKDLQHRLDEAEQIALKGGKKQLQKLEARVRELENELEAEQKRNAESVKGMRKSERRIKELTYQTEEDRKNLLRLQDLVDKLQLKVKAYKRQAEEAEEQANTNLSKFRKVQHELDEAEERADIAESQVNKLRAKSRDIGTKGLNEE

As to `C[C@H](NC(=O)[C@H](C)N1Cc2c(ccnc2Br)NC1=O)c1ccc(F)cc1F` [Compound N94], the “Porcine Ventricle IC25” value in assay [1] was 0.4952 µM. In addition, the “Porcine Atria IC25” value in assay [2] came out at 0.22 µM. Moreover, the “Rabbit Psoas IC25” value in assay [3] was 0.0739 µM.
For `C[C@H](NC(=O)[C@@H](C)N1Cc2c(ccnc2Br)NC1=O)c1ccc(F)cc1F` [Compound N95], in that order: 5.968 µM, 3.69 µM and 0.9565 µM.
Consider `C[C@H](NC(=O)[C@H](Cc1ccccc1)N1Cc2nc(F)ccc2NC1=O)c1ccc(F)cc1F` [Compound N96], for which the “Porcine Ventricle IC25” value in assay [1] was determined as 100 µM. Also, the “Porcine Atria IC25” value in assay [2] came out at 100.00 µM. In assay [3], the “Rabbit Psoas IC25” value was determined as 100 µM.
Take `C[C@H](NC(=O)[C@@H](Cc1ccccc1)N1Cc2nc(F)ccc2NC1=O)c1ccc(F)cc1F` [Compound N97]: the “Porcine Ventricle IC25” value in assay [1] worked out at 100 µM. In addition, in assay [2], the “Porcine Atria IC25” value stood at 100.00 µM. In addition, the “Rabbit Psoas IC25” value in assay [3] came to 90.25 µM.
For `C[C@H](NC(=O)[C@H](C)N1Cc2nc(F)ccc2NC1=O)c1ccc(F)cc1` [Compound N98], in that order: 71.64 µM, 0.36 µM and 8.57 µM.
For `C[C@H](NC(=O)[C@@H](C)N1Cc2nc(F)ccc2NC1=O)c1ccc(F)cc1` [Compound N99], in that order: 100 µM, 8.28 µM and 100 µM.
For `O=C(CN1Cc2c(ccnc2Cl)NC1=O)N[C@@H](c1ccc(F)cc1F)C(F)(F)F` [Compound N100], in that order: 100 µM, 100.00 µM and 9.48 µM.
As for `O=C(CN1Cc2c(ccnc2Cl)NC1=O)N[C@H](c1ccc(F)cc1F)C(F)(F)F` [Compound N101], the “Porcine Ventricle IC25” value in assay [1] was found to be 1.94 µM. In addition, the “Porcine Atria IC25” value in assay [2] was determined as 0.27 µM. In addition, the “Rabbit Psoas IC25” value in assay [3] is 0.1554 µM.
Consider `C[C@H](NC(=O)CN1Cc2nc(Br)ccc2NC1=O)c1ccc(F)cc1F` [Compound N103], for which the “Porcine Ventricle IC25” value in assay [1] was found to be 9.96 µM. Also, in assay [2], the “Porcine Atria IC25” value was found to be 0.16 µM. Further, the “Rabbit Psoas IC25” value in assay [3] is 1.03 µM.
For the compound `C[C@@H](NC(=O)CN1Cc2nc(F)ccc2NC1=O)c1ncc(F)cc1F` [Compound N104, N-[(1R)-1-(3,5-Difluoropyridin-2-yl)ethyl]-2-[6-fluoro-2-oxo-1H,4H-pyrido[3,2-d]pyrimidin-3-yl]acetamide], the “Porcine Ventricle IC25” value in assay [1] is 4.155 µM. Besides, the “Porcine Atria IC25” value in assay [2] came out at 0.16 µM. The “Rabbit Psoas IC25” value in assay [3] was 0.1699 µM.
Take `C[C@H](NC(=O)CN1Cc2nc(F)ccc2NC1=O)c1ncc(F)cc1F` [Compound N105]: the “Porcine Ventricle IC25” value in assay [1] amounted to 100 µM. The “Porcine Atria IC25” value in assay [2] is 100.00 µM. The “Rabbit Psoas IC25” value in assay [3] was 30.96 µM.
In the case of `COc1ccc2c(n1)CN([C@H](C)C(=O)N[C@@H](C)c1ccc(F)cc1F)C(=O)N2` [Compound N106], the “Porcine Ventricle IC25” value in assay [1] was determined as 100 µM. Besides, the “Porcine Atria IC25” value in assay [2] amounted to 2.58 µM. Further, in assay [3], the “Rabbit Psoas IC25” value is 3.732 µM.
With `COc1ccc2c(n1)CN([C@@H](C)C(=O)N[C@@H](C)c1ccc(F)cc1F)C(=O)N2` [Compound N107], the “Porcine Ventricle IC25” value in assay [1] was determined as 100 µM. In assay [2], the “Porcine Atria IC25” value amounted to 100.00 µM. The “Rabbit Psoas IC25” value in assay [3] was determined as 100 µM.
On to `C[C@H](NC(=O)[C@H](C)N1Cc2c(ccnc2C(F)(F)F)NC1=O)c1ccc(F)cc1F` [Compound N108], for which, in assay [1], the “Porcine Ventricle IC25” value worked out at 49.28 µM. In addition, the “Porcine Atria IC25” value in assay [2] worked out at 1.41 µM. The “Rabbit Psoas IC25” value in assay [3] amounted to 0.0727 µM.
As to `C[C@H](NC(=O)CN1Cc2nc(OC(F)(F)F)ccc2NC1=O)c1ccc(F)cc1F` [Compound N109], the “Porcine Ventricle IC25” value in assay [1] was found to be 100 µM. In assay [2], the “Porcine Atria IC25” value is 5.44 µM. Moreover, in assay [3], the “Rabbit Psoas IC25” value worked out at 0.4553 µM.
For `CC(C(=O)N[C@@H](C)c1ccc(F)cc1F)N1Cc2nc(F)ccc2NC1=O` (stereo partly drawn) [Compound N110], in that order: 19.54 µM, 0.19 µM and 0.1674 µM.
In the case of `C[C@H](NC(=O)[C@@H](C)N1Cc2nc(F)ccc2NC1=O)c1ccc(F)cc1F` [Compound N111], the “Porcine Ventricle IC25” value in assay [1] was found to be 6.67 µM. For the same compound, the “Porcine Atria IC25” value in assay [2] is 0.08 µM. Further, in assay [3], the “Rabbit Psoas IC25” value worked out at 0.1027 µM.
As to `C[C@H](NC(=O)CN1Cc2nc(C(F)(F)F)ccc2NC1=O)c1ccc(F)cc1F` [Compound N112, N-[(1S)-1-(2,4-Difluorophenyl)ethyl]-2-[2-oxo-6-(trifluoromethyl)-1H,4H-pyrido[3,2-d]pyrimidin-3-yl]acetamide], the “Porcine Ventricle IC25” value in assay [1] worked out at 9.823 µM. Further, in assay [2], the “Porcine Atria IC25” value worked out at 0.23 µM. Besides, the “Rabbit Psoas IC25” value in assay [3] worked out at 0.2968 µM.
For `C[C@H](NC(=O)CN1Cc2nc(OC3CC3)ccc2NC1=O)c1ccc(F)cc1F` [Compound N113], in assay [1], the “Porcine Ventricle IC25” value turned out to be 73.85 µM. For the same compound, the “Porcine Atria IC25” value in assay [2] was 22.12 µM. Also, in assay [3], the “Rabbit Psoas IC25” value turned out to be 0.3281 µM.
In the same order, the values of `C[C@H](NC(=O)[C@H](C)N1Cc2c(ccnc2Cl)NC1=O)c1ccc(F)cc1F` [Compound N114] are 8.373 µM, 2.30 µM and 0.2892 µM.
In the same order, the values of `C[C@H](NC(=O)[C@@H](C)N1Cc2c(ccnc2Cl)NC1=O)c1ccc(F)cc1F` [Compound N115] are 0.7516 µM, 0.51 µM and 0.0228 µM.
With `C[C@H](NC(=O)CN1Cc2c(ccnc2OC2CC2)NC1=O)c1ccc(F)cc1F` [Compound N116], in assay [1], the “Porcine Ventricle IC25” value was determined as 40.22 µM. In addition, the “Porcine Atria IC25” value in assay [2] was found to be 4.38 µM. In addition, in assay [3], the “Rabbit Psoas IC25” value was 0.1914 µM.
Consider `C[C@H](NC(=O)CN1Cc2nc(Cl)ccc2NC1=O)c1ccc(F)cc1F` [Compound N117, 2-{6-Chloro-2-oxo-1H,4H-pyrido[3,2-d]pyrimidin-3-yl}-N-[(1S)-1-(2,4-difluorophenyl)ethyl]acetamide], for which the “Porcine Ventricle IC25” value in assay [1] was found to be 0.3795 µM. For the same compound, in assay [2], the “Porcine Atria IC25” value came out at 0.17 µM. The “Rabbit Psoas IC25” value in assay [3] came to 0.0146 µM.
For the compound `CCOc1ccc2c(n1)CN(CC(=O)N[C@@H](C)c1ccc(F)cc1F)C(=O)N2` [Compound N118], the “Porcine Ventricle IC25” value in assay [1] worked out at 5.896 µM. Also, the “Porcine Atria IC25” value in assay [2] is 0.75 µM. Besides, the “Rabbit Psoas IC25” value in assay [3] amounted to 0.152 µM.
In the same order, the values of `COc1ccc2c(n1)CN(CC(=O)N[C@@H](C)c1ccc(F)cc1F)C(=O)N2` [Compound N119] are 3.289 µM, 0.57 µM and 0.1196 µM.
For `CC(C)Oc1nccc2c1CN(CC(=O)N[C@@H](C)c1ccc(F)cc1F)C(=O)N2` [Compound N120], the “Porcine Ventricle IC25” value in assay [1] is 27.23 µM. Besides, the “Porcine Atria IC25” value in assay [2] is 100.00 µM. Further, the “Rabbit Psoas IC25” value in assay [3] was found to be 0.4239 µM.
In the same order, the values of `CCOc1nccc2c1CN(CC(=O)N[C@@H](C)c1ccc(F)cc1F)C(=O)N2` [Compound N121] are 5.985 µM, 0.51 µM and 0.0218 µM.
